Measurements taken from ChEMBL document CHEMBL6153162, “Receptor-Interacting Protein Kinase 1 (RIPK1) Inhibitors as Potential Treatment for Several Inflammatory and Neurodegenerative Diseases” (ACS Med Chem Lett, 2025).

molecular target: PI3-kinase p110-delta/p85-alpha (Homo sapiens, UniProt O00329); test: Inhibition of His-tagged full-length recombinant human PIK3CD/PIK3R1 extracted from baculovirus expression system incubated for 1 hr by FRET assay
Sequence (P27986 whole entry): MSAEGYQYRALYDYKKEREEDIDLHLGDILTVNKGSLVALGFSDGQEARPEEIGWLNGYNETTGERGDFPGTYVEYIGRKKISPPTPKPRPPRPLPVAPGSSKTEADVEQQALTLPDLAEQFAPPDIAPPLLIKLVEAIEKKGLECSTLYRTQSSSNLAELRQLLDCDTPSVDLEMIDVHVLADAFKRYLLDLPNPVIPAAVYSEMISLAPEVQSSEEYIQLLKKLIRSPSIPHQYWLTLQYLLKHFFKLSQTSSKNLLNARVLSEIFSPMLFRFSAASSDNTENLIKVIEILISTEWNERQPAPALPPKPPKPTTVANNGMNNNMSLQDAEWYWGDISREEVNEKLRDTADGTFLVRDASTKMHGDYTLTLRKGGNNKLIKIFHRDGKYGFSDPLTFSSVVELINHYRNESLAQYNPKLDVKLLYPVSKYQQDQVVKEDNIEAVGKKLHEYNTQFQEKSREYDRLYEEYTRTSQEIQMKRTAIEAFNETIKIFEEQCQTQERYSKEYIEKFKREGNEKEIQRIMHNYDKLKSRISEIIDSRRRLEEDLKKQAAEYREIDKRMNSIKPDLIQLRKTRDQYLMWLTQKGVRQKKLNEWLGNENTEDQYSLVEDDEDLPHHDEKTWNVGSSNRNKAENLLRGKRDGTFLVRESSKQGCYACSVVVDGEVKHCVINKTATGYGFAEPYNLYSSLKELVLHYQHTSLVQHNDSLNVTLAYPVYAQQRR
Sequence (O00329 whole entry): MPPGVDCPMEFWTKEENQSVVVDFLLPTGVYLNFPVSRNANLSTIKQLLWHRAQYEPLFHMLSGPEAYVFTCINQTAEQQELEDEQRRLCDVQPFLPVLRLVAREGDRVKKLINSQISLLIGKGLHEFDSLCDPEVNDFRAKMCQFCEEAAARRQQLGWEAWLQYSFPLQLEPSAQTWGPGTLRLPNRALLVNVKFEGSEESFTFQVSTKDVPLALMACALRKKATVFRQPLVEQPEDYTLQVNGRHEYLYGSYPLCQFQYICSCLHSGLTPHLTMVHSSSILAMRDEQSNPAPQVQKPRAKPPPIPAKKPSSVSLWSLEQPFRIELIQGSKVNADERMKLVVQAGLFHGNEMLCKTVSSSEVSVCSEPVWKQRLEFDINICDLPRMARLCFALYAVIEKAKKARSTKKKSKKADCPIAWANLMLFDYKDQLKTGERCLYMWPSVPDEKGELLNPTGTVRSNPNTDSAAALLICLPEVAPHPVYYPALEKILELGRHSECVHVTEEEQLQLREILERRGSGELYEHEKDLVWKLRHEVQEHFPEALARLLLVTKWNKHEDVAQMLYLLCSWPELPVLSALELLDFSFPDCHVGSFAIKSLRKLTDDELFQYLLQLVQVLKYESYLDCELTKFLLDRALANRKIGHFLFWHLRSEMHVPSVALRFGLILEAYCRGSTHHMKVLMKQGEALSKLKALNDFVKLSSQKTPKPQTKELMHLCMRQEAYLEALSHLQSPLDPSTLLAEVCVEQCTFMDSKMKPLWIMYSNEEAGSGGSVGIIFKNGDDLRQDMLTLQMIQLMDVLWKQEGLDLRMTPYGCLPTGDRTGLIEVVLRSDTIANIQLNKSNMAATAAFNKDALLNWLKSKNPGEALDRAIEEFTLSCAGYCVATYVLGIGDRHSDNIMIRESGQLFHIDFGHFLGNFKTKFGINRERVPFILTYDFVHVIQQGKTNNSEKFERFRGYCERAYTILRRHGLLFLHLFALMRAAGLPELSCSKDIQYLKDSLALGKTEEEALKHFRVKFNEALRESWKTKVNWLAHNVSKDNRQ

SMILES	IC50 [nM]
Cc1ccc(-c2ccn3nc(N)nc3c2)c(F)c1C(=O)NC[C@@H](F)[C@H](O)c1ccc(Cl)cc1	> 15
Cc1ccc(-c2ccn3nc(N)nc3c2)c(F)c1C(=O)NC(CF)CC(O)c1ccc(Cl)cc1 (stereo not drawn)	> 15
Cc1ccc(-c2ccn3nc(N)nc3c2)c(F)c1C(=O)NCC(F)(F)C(O)c1ccc(Cl)c(Cl)c1 (single isomer, unassigned)	> 15
Cc1ccc(-c2ccn3nc(N)nc3c2)c(F)c1C(=O)NCC(F)(F)C(O)C1CC(F)(F)C1 (single isomer, unassigned)	> 15

More lines, now with the values ahead:

IC50 [nM]	SMILES
> 15	Cc1cc(F)c(-c2ccn3nc(N)nc3c2)cc1C(=O)NCCC(O)c1ccc(C(F)(F)F)cc1 (racemic)
> 15	Cc1ccc(-c2ccn3nc(N)nc3c2)c(F)c1C(=O)NCCC(O)c1ccc(Cl)cn1 (stereo not drawn)
> 15	Cc1ccc(-c2ccn3nc(N)nc3c2)c(F)c1C(=O)NCCC(F)c1ccc(Cl)cc1 (racemic)
15	COc1c(F)cccc1C(O)CCNC(=O)c1c(C)ccc(-c2ccn3nc(N)nc3c2)c1F (single isomer, unassigned)
